Test results reported in patent US7645603B2, “Cells having cardiac glycoside resistance” (Avaris AB, priority 2003, dated 2010).

Tests used:
[1] = system: COS-7 cells; assay: Ouabain toxicity assay, transiently transfected COS-7 cells, cell viability; format: cell-based; settings: wild type COS-7, 10 μM ouabain
Description: COS-7 cells (ATCC, Manassas, Va.) were cultured and transfected as above. After 48 h incubation in 10 μM ouabain, the cells were washed twice in PBS (Gibco) and incubated for 15 min in 0.025% porcine trypsine in saline (Sigma). The trypsin was inactivated by FBS addition. The cells were re-incubated in 10 μM ouabain. Cell viability was documented following 48 h incubation.

[2] = system: HeLa cells; assay: Ouabain toxicity assay, transiently transfected HeLa cells, cell viability; format: cell-based, human; settings: 10 μM ouabain
Description: HeLa cells (ATCC, Manassas, Va.) were cultured in DMEM Glutamax with 10% heat-inactivated fetal bovine serum (FBS). For transfections, Fugene 6 reagent (Roche Boehringer Mannheim, Germany) was used according to manufacturer's description. Briefly, 2 μg of plasmid DNA per 10^5 cells were complexed with 5 μl of the reagent in a 100 μl volume of cell culture medium and added to cells after 15 min of incubation. After 24 h, ouabain was added to each well to a final concentration of 10 μM. Cell viability was documented following 24 h incubation.
(§1) For transfections, Fugene 6 reagent (Roche Boeringer Mannheim, Germany) was used according to the manufacturer's instructions. Briefly, 2 μg of plasmid DNA per 10^5 cells were complexed with 5 μl of the reagent in a 100 μl volume of cell culture medium DMEM Glutamax and added to cells after 15 min of incubation. Ouabain (Sigma, St. Louis, Mo., USA) was dissolved in DMEM as a stock solution of 10 mM. For selection experiments 10-500 μM was used. Ouabain was added to the cells at 24 h after transfection. At 48 hours post transfection the cells were trypsinized and transferred to ouabain-free medium. Cell survival was quantified spectrophoto-metrically using the WST-1 cell proliferation reagent (Roche) according to the manufacturer's instructions.

[3] = system: HeLa cells; assay: Ouabain dose response assay in transfected HeLa cells, WST-1 cell proliferation reagent; format: cell-based, human; settings: 10-500 μM ouabain, 24 hours
Description: as §1

C[C@@H]1O[C@@H](O[C@H]2C[C@@H](O)[C@]3(CO)[C@H]4[C@H](O)C[C@]5(C)[C@@H](C6=CC(=O)OC6)CC[C@]5(O)[C@@H]4CC[C@]3(O)C2)[C@H](O)[C@H](O)[C@H]1O [ouabain]
ouabain induced cell death of wild type cells [1]: induces cell death | ouabain induced cell death of wild type cells [2]: induces cell death | effect of ouabain on control and un-transfected cells (WST-1) [3]: eliminated
